Test results from patent US12187702B2, “Sulfonamideurea compounds” (Inflazome Limited, priority 2018, dated 2025).
Where a name gives a salt, the structure may show the parent alone.

Experiments:
[1] = target: T1, NLRP3 (Homo sapiens, UniProt Q96P20); test: THP-1 cells pyroptosis assay (LPS + nigericin, resazurin read-out); format: cell-based; parameters: Seed THP-1 cells (25,000 cells/well) containing 1.0 μg/ml LPS; host or cells: THP-1 cells; conditions: THP-1 cells, 1 μg/ml LPS, 5 μM nigericin; NLRP3 inhibitory activity; read-out: THP IC50
Experimental: THP-1 cells (ATCC #TIB-202) were grown in RPMI containing L-glutamine (Gibco #11835) supplemented with 1 mM sodium pyruvate (Sigma #S8636) and penicillin (100 units/ml)/streptomycin (0.1 mg/ml) (Sigma #P4333) in 10% Fetal Bovine Serum (FBS) (Sigma #F0804). The cells were routinely passaged and grown to confluency (˜10^6 cells/ml). On the day of the experiment, THP-1 cells were harvested and resuspended into RPMI medium (without FBS). The cells were then counted and viability (>90%) checked by Trypan blue (Sigma #T8154). Appropriate dilutions were made to give a concentration of 625,000 cells/ml. To this diluted cell solution was added LPS (Sigma #L4524) to give a 1 μg/ml Final Assay Concentration (FAC). 40 μl of the final preparation was aliquoted into each well of a 96-well plate. The plate thus prepared was used for compound screening.
The following method step-by-step assay was followed for compound screening. • 1. Seed THP-1 cells (25,000 cells/well) containing 1.0 μg/ml LPS in 40 μl of RPMI medium (without FBS) in 96-well, black walled, clear bottom cell culture plates coated with poly-D-lysine (VWR #734-0317) • 2. Add 5 μl compound (8 points half-log dilution, with 10 μM top dose) or vehicle (DMSO 0.1% FAC) to the appropriate wells • 3. Incubate for 3 hrs at 37° C., 5% CO2 • 4. Add 5 μl nigericin (Sigma #N7143) (FAC 5 μM) to all wells • 5. Incubate for 1 hr at 37° C., 5% CO2 • 6. At the end of the incubation period, spin plates at 300×g for 3 mins and remove supernatant • 7. Then add 50 μl of resazurin (Sigma #R7017) (FAC 100 μM resazurin in RPMI medium without FBS) and incubate plates for a further 1-2 hrs at 37° C. and 5% CO2 • 8. Plates were read in an Envision reader at Ex 560 nm and Em 590 nm • 9. IC50 data is fitted to a non-linear regression equation (log inhibitor vs response-variable slope 4-parameters)

[2] = target: T1, NLRP3; test: Human whole blood IL-1β release assay (LPS + nigericin, AlphaLisa); format: cell-based; parameters: Plate out 80 μl of whole blood containing 1 μg/ml of LPS; from tissue; host or cells: human whole blood from healthy donors; conditions: human whole blood, 1 μg/ml LPS, 10 μM nigericin; IL-1β release; read-out: HWB IC50
Experimental: For systemic delivery, the ability to inhibit NLRP3 when the compounds are present within the bloodstream is of great importance. For this reason, the NLRP3 inhibitory activity of a number of compounds in human whole blood was investigated in accordance with the following protocol.
Human whole blood in Li-heparin tubes was obtained from healthy donors from a volunteer donor panel. • 1. Plate out 80 μl of whole blood containing 1 μg/ml of LPS in 96-well, clear bottom cell culture plate (Corning #3585) • 2. Add 10 μl compound (8 points half-log dilution with 10 μM top dose) or vehicle (DMSO 0.1% FAC) to the appropriate wells • 3. Incubate for 3 hrs at 37° C., 5% CO2 • 4. Add 10 μl nigericin (Sigma #N7143) (10 μM FAC) to all wells • 5. Incubate for 1 hr at 37° C., 5% CO2 • 6. At the end of the incubation period, spin plates at 300×g for 5 mins to pellet cells and remove 20 μl of supernatant and add to 96-well v-bottom plates for IL-1β analysis (note: these plates containing the supernatants can be stored at −80° C. to be analysed at a later date) • 7. IL-1β was measured according to the manufacturer protocol (Perkin Elmer-AlphaLisa IL-1 Kit AL220F-5000) • 8. IC50 data is fitted to a non-linear regression equation (log inhibitor vs response-variable slope 4-parameters)

T1 sequence (Q96P20 whole entry): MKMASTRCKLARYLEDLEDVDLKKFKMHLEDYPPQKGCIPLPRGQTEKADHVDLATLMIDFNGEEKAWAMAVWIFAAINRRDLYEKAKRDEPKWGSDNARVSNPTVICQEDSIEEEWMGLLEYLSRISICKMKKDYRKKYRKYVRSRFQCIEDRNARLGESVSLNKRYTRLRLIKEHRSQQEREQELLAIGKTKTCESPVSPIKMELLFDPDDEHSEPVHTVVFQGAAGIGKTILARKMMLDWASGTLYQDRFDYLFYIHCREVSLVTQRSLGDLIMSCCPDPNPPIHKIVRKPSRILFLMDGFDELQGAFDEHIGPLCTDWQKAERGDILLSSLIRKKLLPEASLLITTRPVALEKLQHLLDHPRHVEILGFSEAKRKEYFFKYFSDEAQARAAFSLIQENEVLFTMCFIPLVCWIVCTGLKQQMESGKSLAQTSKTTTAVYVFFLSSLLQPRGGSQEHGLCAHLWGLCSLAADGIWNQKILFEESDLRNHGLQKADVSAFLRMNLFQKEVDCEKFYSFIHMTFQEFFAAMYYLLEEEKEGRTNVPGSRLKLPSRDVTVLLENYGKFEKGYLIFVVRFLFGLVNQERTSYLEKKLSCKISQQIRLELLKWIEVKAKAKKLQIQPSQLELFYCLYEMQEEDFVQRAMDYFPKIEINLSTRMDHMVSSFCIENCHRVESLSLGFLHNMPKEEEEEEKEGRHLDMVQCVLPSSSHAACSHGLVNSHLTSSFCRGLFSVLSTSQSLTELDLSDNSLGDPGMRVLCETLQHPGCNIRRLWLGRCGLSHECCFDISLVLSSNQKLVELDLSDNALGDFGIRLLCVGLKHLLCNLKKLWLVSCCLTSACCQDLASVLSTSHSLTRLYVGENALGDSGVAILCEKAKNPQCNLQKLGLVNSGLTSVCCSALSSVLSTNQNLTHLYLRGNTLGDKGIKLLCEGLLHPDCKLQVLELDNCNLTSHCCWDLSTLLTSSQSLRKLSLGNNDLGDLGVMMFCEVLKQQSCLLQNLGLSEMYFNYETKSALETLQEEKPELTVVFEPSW

IC50 [1] [nM]	IC50 [2] [nM]	Structure (SMILES)
< 500	< 500	CN(C)C1CCN(S(=O)(=O)NC(=O)Nc2c3c(cc4c2CCC4)CCC3)C1 (centres unmarked) [Example 9, 3-(Dimethylamino)-N-((1,2,3,5,6,7-hexahydro-s-indacen-4-yl)carbamoyl)pyrrolidine-1-sulfonamide, potassium salt]
< 5000	< 5000	CN(C)CCN(Cc1ccccc1)S(=O)(=O)NC(=O)Nc1c2c(cc3c1CCC3)CCC2 [Example 10, 3-(N-Benzyl-N-(2-(dimethylamino)ethyl)sulfamoyl)-1-(1,2,3,5,6,7-hexahydro-s-indacen-4-yl)urea, potassium salt]
< 500	< 500	CN1C2CCC1CN(S(=O)(=O)NC(=O)Nc1c3c(cc4c1CCC4)CCC3)C2 [Example 14, N-((1,2,3,5,6,7-Hexahydro-s-indacen-4-yl)carbamoyl)-8-methyl-3,8-diazabicyclo[3.2.1]octane-3-sulfonamide, potassium salt]
< 500	< 500	CN(C)C1CCCN(S(=O)(=O)NC(=O)Nc2c3c(cc4c2CCC4)CCC3)C1 (centres unmarked) [Example 15, potassium salt]
< 1000	< 500	CN1CCCC1CNS(=O)(=O)NC(=O)Nc1c2c(cc3c1CCC3)CCC2 (centres unmarked) [Example 25, 3-(N-((1-Methylpyrrolidin-2-yl)methyl))sulfamoyl)-1-(1,2,3,5,6,7-hexahydro-s-indacen-4-yl)urea, potassium salt]
< 500	< 1000	CC(C)NCCNS(=O)(=O)NC(=O)Nc1c2c(cc3c1CCC3)CCC2 [Example 26]
< 500	< 500	CC(C)NCCN(C(C)C)S(=O)(=O)NC(=O)Nc1c2c(cc3c1CCC3)CCC2 [Example 28, 3-(N-Isopropyl-N-(2-(isopropylamino)ethyl))sulfamoyl)-1-(1,2,3,5,6,7-hexahydro-s-indacen-4-yl)urea, potassium salt]
< 500	< 500	CC(C)N1C2CCC1CN(S(=O)(=O)NC(=O)Nc1c3c(cc4c1CCC4)CCC3)C2 [Example 29, N-((1,2,3,5,6,7-Hexahydro-s-indacen-4-yl)carbamoyl)-8-isopropyl-3,8-diazabicyclo[3.2.1]octane-3-sulfonamide, potassium salt]
< 1000	< 500	CC(CNS(=O)(=O)NC(=O)Nc1c2c(cc3c1CCC3)CCC2)N(C)C (centres unmarked) [Example 30, 3-(N-(2-(Dimethylamino)propyl))sulfamoyl)-1-(1,2,3,5,6,7-hexahydro-s-indacen-4-yl)urea, potassium salt]
< 500	< 500	CN1CCC1CNS(=O)(=O)NC(=O)Nc1c2c(cc3c1CCC3)CCC2 (centres unmarked) [Example 31, 3-(N-((1-Methylazetidin-2-yl)methyl))sulfamoyl)-1-(1,2,3,5,6,7-hexahydro-s-indacen-4-yl)urea, potassium salt]
< 500	< 500	CN1CC(NS(=O)(=O)NC(=O)Nc2c3c(cc4c2CCC4)CCC3)C1 [Example 34, 3-(N-(1-Methylazetidin-3-yl))sulfamoyl)-1-(1,2,3,5,6,7-hexahydro-s-indacen-4-yl)urea, potassium salt]
< 5000	< 1000	O=C(Nc1c2c(cc3c1CCC3)CCC2)NS(=O)(=O)NCCN1CCC1 [Example 35, 3-(N-(2-(Azetidin-1-yl)ethyl)sulfamoyl)-1-(1,2,3,5,6,7-hexahydro-s-indacen-4-yl)urea, potassium salt]
< 500	< 1000	CN1CC2CCC(C1)N2S(=O)(=O)NC(=O)Nc1c2c(cc3c1CCC3)CCC2 [Example 37, N-((1,2,3,5,6,7-Hexahydro-s-indacen-4-yl)carbamoyl)-3-methyl-3,8-diazabicyclo[3.2.1]octane-8-sulfonamide, potassium salt]
< 1000	–	CN1CC(CNS(=O)(=O)NC(=O)Nc2c3c(cc4c2CCC4)CCC3)C1 [Example 69, 3-(N-((1-Methylazetidin-3-yl)methyl)sulfamoyl)-1-(1,2,3,5,6,7-hexahydro-s-indacen-4-yl)urea, potassium salt]
< 5000	–	CN(C)CC1CCCN1S(=O)(=O)NC(=O)Nc1c2c(cc3c1CCC3)CCC2 (centres unmarked) [Example 82, 2-((Dimethylamino)methyl)-N-((1,2,3,5,6,7-hexahydro-s-indacen-4-yl)carbamoyl)pyrrolidine-1-sulfonamide, potassium salt]
< 5000	–	CN1CC2CN(S(=O)(=O)NC(=O)Nc3c4c(cc5c3CCC5)CCC4)CC2C1 (centres unmarked) [Example 99, N-((1,2,3,5,6,7-Hexahydro-s-indacen-4-yl)carbamoyl)-5-methylhexahydropyrrolo[3,4-c]pyrrole-2(1H)-sulfonamide]
< 5000	–	CC(C)c1cc(F)cc(-c2ccnc(C#N)c2)c1NC(=O)NS(=O)(=O)N(C)C1CCN(C)C1 (centres unmarked) [Example 101]
< 5000	–	CC(C)c1cc(F)cc(-c2ccnc(C#N)c2)c1NC(=O)NS(=O)(=O)N(C)CC1CCCN1C (centres unmarked) [Example 102]
< 10000	–	Cc1nc(C(C)C)c(NC(=O)NS(=O)(=O)N(C)C2CCN(C)C2)n1-c1ccncc1 (centres unmarked) [Example 109, 1-(5-Isopropyl-2-methyl-3-(4-pyridyl)imidazol-4-yl)-3-(methyl-(1-methylpyrrolidin-3-yl)sulfamoyl)urea]

Structure (SMILES)	IC50 [1] [nM]	IC50 [2] [nM]
O=C(Nc1c2c(cc3c1CCC3)CCC2)NS(=O)(=O)N1[C@@H]2CC[C@H]1C[C@@H](N1CCCC1)C2 [Example 70, (1R,3r,5S)—N-((1,2,3,5,6,7-Hexahydro-s-indacen-4-yl)carbamoyl)-3-(pyrrolidin-1-yl)-8-azabicyclo[3.2.1]octane-8-sulfonamide]	< 1000	–
CCN1[C@@H]2CC[C@H]1C[C@H](NS(=O)(=O)NC(=O)Nc1c3c(cc4c1CCC4)CCC3)C2 [Example 74, (1R,3s,5S)-8-Ethyl-8-azabicyclo[3.2.1]octan-3-(N-((1,2,3,5,6,7-hexahydro-s-indacen-4-yl)carbamoyl)-sulfonamide)]	< 5000	–
CN(C)[C@@H]1C[C@H]2CC[C@@H](C1)N2S(=O)(=O)NC(=O)Nc1c2c(cc3c1CCC3)CCC2 [Example 77, (1R,3s,5S)-3-(Dimethylamino)-N-((1,2,3,5,6,7-hexahydro-s-indacen-4-yl)carbamoyl)-8-azabicyclo[3.2.1]octane-8-sulfonamide]	< 10000	–
CCN(CC)[C@@H]1C[C@H]2CC[C@@H](C1)N2S(=O)(=O)NC(=O)Nc1c2c(cc3c1CCC3)CCC2 [Example 78, (1R,3s,5S)-3-(Diethylamino)-N-((1,2,3,5,6,7-hexahydro-s-indacen-4-yl)carbamoyl)-8-azabicyclo[3.2.1]octane-8-sulfonamide]	< 5000	–
CN(C)[C@H]1C[C@H]2CC[C@@H](C1)N2S(=O)(=O)NC(=O)Nc1c2c(cc3c1CCC3)CCC2 [Example 79, (1R,3r,5S)-3-(Dimethylamino)-N-((1,2,3,5,6,7-hexahydro-s-indacen-4-yl)carbamoyl)-8-azabicyclo[3.2.1]octane-8-sulfonamide]	–	< 500
CN1C2CC1CN(S(=O)(=O)NC(=O)Nc1c3c(cc4c1CCC4)CCC3)C2 [Example 100, N-((1,2,3,5,6,7-Hexahydro-s-indacen-4-yl)carbamoyl)-6-methyl-3,6-diazabicyclo[3.1.1]heptane-3-sulfonamide]	< 500	–
